Assay [1] deals with T1, B. anthracis lumazine synthase (BaLS) (Bacillus anthracis, UniProt Q81MB5). As to the kind of experiment: biochemical. Type of assay: binding. To be noted: for Binding enthalpy ΔH / Free energy of binding ΔG / No. of sites n / TΔS: pH 7.
The target in the next assay is C. albicans LS (CaLS). To be noted: read-out: Dissociation constant Kd; cited from earlier work.
Assay [2] concerns the target T1, B. anthracis lumazine synthase (BaLS). As to the kind of experiment: biochemical. To be noted: for Mechanism: pH 7.
Assay [3] addresses LS from M. tuberculosis (MtLS). The note with it: read-out: Dissociation constant Kd; cited from earlier work.

SMILES strings stand for the structures.

Usually Kd stands for the constant that tells how readily two partners part at equilibrium. For orientation: Ki means the dissociation constant of the complex between target and ligand, obtained from inhibition or displacement. The kcat is the maximal rate divided by the concentration of active sites.

T1 sequence (Q81MB5 whole entry, looked up): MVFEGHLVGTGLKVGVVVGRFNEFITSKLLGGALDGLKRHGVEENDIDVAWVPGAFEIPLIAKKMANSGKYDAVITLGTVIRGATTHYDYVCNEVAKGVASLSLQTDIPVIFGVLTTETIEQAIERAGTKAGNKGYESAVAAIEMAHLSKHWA

For `O=c1[nH]c(Cl)c(CCCCOP(=O)(O)O)c(=O)[nH]1` [JC33, 4-(6-Chloro-2,4-dioxo-1,2,3,4-tetrahydropyrimidine-5-yl)-n-butyl 1-phosphate], in assay [1], the Kd was 1750 ± 40 nM, the “Binding enthalpy ΔH” value is -7.50 ± 0.07 kcal/mol, the “Free energy of binding ΔG” value is -7.98 ± 0.02 kcal/mol and the “No. of sites n” value is 0.98 ± 0.04. In assay [1], this compound had a TΔS of 0.47 ± 0.07 kcal/mol. Besides, the Kd at C. albicans LS (CaLS) was 150 ± 40 nM. In assay [2], the Ki is 23 nM and the Mechanism entry is listed as “Competitive”. Moreover, in assay [2] (pH 7.0), the Ks turned out to be 8.0 ± 0.5 µM and the kcat came out at 0.01 ± 0.00017 s⁻¹. The Kd in assay [3] was 720 ± 20 nM.

For the compound `O=c1[nH]c(Cl)c(CCCCCP(=O)(O)O)c(=O)[nH]1` [JC72, 5-(6-chloro-2,4-dioxo-1,2,3,4-tetrahydropyrimidine-5-yl)-n-pentyl 1-phosphonate], in assay [1], the Kd was 3940 ± 10 nM, the “Binding enthalpy ΔH” value was -5.29 ± 0.8 kcal/mol, the “Free energy of binding ΔG” value was -7.49 ± 0.01 kcal/mol and the “No. of sites n” value worked out at 0.98 ± 0.12. In assay [1], this compound yielded a TΔS of 2.20 ± 0.79 kcal/mol. For the same compound, in assay [2], affinity was put at a Ki of 430 nM, the “increase of the Ki value in comparison to JC33” value is listed as “approximately 20 fold” and the Mechanism entry is given as “Partial”. Further, in assay [2] (pH 7.0), the Kis amounted to 9.5 ± 3.5 µM, the Ks came to 8.5 ± 0.5 µM, the kcat worked out at 0.01 ± 0.00017 s⁻¹ and the “k′cat” value turned out to be 0.28 ± 0.09 min⁻¹.

Values taken from paper PMC2935281 (Acta Crystallographica Section D: Biological Crystallography, 2010).
